The values that follow come from PMC6934184, “Selective DNA-PKcs inhibition extends the therapeutic index of localized radiotherapy and chemotherapy” (The Journal of Clinical Investigation, 2019).

The target of this experiment is T1, DDR1 (Homo sapiens, UniProt Q08345).
T1 construct: purchased Thermo Fisher Scientific (Life Technologies) SelectScreen
Kind of experiment: SelectScreen LanthaScreen. Format: binding. The note with it: read-out: % displacement. The method, boiled down:
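NU5455 was profiled across the SelectScreen Broad panel of kinase activity and binding assays. Z'LYTE reactions such as CSF1R ran at apparent Km ATP, while the Adapta CAMK1 assay used ATP listed as 10. Values are given as percent.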
Background: Time-resolved FRET reads energy transfer from a long-lived donor to a nearby acceptor.

T1 sequence (Q08345 19-913): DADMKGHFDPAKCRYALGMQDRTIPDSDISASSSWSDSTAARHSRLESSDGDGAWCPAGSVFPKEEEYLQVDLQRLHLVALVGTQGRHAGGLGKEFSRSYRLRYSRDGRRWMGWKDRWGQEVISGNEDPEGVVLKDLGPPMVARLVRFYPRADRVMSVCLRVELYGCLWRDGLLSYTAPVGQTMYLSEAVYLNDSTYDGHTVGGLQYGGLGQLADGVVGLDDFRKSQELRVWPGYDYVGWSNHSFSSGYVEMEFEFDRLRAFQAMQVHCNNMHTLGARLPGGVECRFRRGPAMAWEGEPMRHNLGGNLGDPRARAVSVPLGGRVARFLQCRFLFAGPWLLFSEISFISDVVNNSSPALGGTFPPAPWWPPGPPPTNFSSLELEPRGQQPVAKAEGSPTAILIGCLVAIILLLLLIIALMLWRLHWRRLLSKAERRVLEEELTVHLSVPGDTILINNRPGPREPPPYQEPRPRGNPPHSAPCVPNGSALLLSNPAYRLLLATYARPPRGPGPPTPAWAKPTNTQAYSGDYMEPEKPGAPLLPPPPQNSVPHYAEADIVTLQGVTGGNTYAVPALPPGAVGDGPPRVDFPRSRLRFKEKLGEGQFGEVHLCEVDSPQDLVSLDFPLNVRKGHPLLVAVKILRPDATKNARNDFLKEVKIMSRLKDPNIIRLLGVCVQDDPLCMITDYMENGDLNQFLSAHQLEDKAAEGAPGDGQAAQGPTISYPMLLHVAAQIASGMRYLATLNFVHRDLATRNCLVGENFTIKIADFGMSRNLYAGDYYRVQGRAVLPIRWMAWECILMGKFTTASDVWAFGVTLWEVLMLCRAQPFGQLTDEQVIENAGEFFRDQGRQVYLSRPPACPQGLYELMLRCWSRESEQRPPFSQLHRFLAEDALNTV

In the case of `CN(C(=O)CN1CCOCC1)c1ccc2sc3c(-c4cccc5c(=O)cc(N6CC7CCC(C6)O7)oc45)cccc3c2c1` [NU5455], the inhibition at 1 µM is -1.8%.
